Measured values: US20240009157A1 (PriZm, LLC, priority 2022, published 2024)

Tests used:
pediatric subjects = details: human, in vivo; cited from earlier work
child having a G-tube = assay: Effect of DITPA on removal of G-tube; format: in vivo, human; details: one child who started DITPA while having a G-tube
[1] = system: MCT8-deficient (knockout) mice (Mct8KO); details: cited from earlier work
[2] = system: MCT8 mutant (mct8−/−) zebrafish; details: cited from earlier work
[3] = system: pediatric patient suffering from Allan-Herndon-Dudley Syndrome; assay: Dosing regimen for a pediatric subject, T3 serum levels; format: in vivo, human
Experimental: Following the first 2 weeks, the daily dosage was increased to 2 mg/kg/day for 2 additional weeks. […] Following the first 2 weeks, the daily dosage was increased to 2 mg/kg/day for 2 additional weeks. […] Following the first 2 weeks, the daily dosage was increased to 2 mg/kg/day for 2 additional weeks.

[4] = ambient temperature and light; cited from earlier work

SMILES | effects in pediatric subjects (pediatric subjects) | G-tube (child having a G-tube) | body weight (child having a G-tube) | MCT8 dependence of entry into the brain [1] | TH deficit [1] | measurements and other parameters of TH action [1] | thyrotoxic effect in the liver [1] | thyrotoxic state in the liver (analysis of TH target genes) [1] | hypomyelination in the CNS [2] | T3 serum levels above normal ([3]; 1 mg/kg/day for 2 weeks, then 2 mg/kg/day for 2 additional weeks, above normal) | T3 serum levels below normal ([3]; 1 mg/kg/day for 2 weeks, then 2 mg/kg/day for 2 additional weeks, below normal) | T3 serum levels upon reassessment ([3]; after 1.0 mg/kg/day for 28 days) | T3 serum levels upon reassessment ([3]; after 1.5 mg/kg/day for 28 days) | T3 serum levels upon reassessment, below normal ([3]; after 1.5 mg/kg/day for 28 days, below normal) | T3 serum levels upon reassessment ([3]; after 2.5 mg/kg/day for 28 days) | stability [4]
O=C(O)Cc1cc(I)c(Oc2ccc(O)c(I)c2)c(I)c1 [TRIAC, triiodothyroacetic acid] | subjects with positive effects. |  |  |  |  |  |  |  |  |  |  |  |  |  |  | 
O=C(O)CCc1cc(I)c(Oc2ccc(O)cc2)c(I)c1 [DITPA, 3,5-diiodothyropropionic acid] |  | g-tube was removed | gained weight | independent for entry into the brain | corrects the TH deficit | showed that SRW101 normalized all measurements and other | Mct8KO mice without causing thyrotoxic effect in the liver (Di | amelioration of the thyrotoxic state in the liver (ameliorating | SRW101 and other TH analogs partially rescued the hypomyelination | more than 15% | more than 15% | normal | normal | more than 15% | normal | stable at ambient temperature and light
